Laboratory results from PMC10199020 (Nature Communications, 2023).
Bridge positions count the residues as written; N and C are the ends. Square brackets hold non-standard residues; d marks the D form. Peptide text beside a SMILES is read from it. * marks the point of attachment. 5TAMRA = CN(C)c1ccc2c(c1)Oc1cc(N(C)C)ccc1C21OC(=O)c2cc(C(=O)*)ccc21; 2Nal = N[C@@H](Cc1ccc2ccccc2c1)C(=O)O; Pen = CC(C)(S)[C@H](N)C(=O)O; Aib = CC(C)(N)C(=O)O

Tests used:
[1] = target: T1, NL-IL23R (Homo sapiens, UniProt Q5VWK5); experiment: P630-TMR NanoBRET binding assay, NL-IL23R alone; settings: for BRET ratio, Specific (Mean) / BRET ratio, Non-specific (Mean): Fig. 2c; for BRET ratio, Non-specific (Mean): with 10 μM P630; for BRET ratio with non-specific binding subtracted (Mean): Figure 2 sheet Panel f; for BRET ratio with non-specific binding subtracted (Mean) / % maximum BRET ratio / % of P630-TMR specific Bmax (Mean): NL-IL23R; for % maximum BRET ratio / % of P630-TMR specific Bmax (Mean): Figure 2 sheet Panel g, Fig. 3d
T1 construct: expressed in transfected cells; host or cells: HEK293T, transient transfection
T1 sequence (Q5VWK5 24-629): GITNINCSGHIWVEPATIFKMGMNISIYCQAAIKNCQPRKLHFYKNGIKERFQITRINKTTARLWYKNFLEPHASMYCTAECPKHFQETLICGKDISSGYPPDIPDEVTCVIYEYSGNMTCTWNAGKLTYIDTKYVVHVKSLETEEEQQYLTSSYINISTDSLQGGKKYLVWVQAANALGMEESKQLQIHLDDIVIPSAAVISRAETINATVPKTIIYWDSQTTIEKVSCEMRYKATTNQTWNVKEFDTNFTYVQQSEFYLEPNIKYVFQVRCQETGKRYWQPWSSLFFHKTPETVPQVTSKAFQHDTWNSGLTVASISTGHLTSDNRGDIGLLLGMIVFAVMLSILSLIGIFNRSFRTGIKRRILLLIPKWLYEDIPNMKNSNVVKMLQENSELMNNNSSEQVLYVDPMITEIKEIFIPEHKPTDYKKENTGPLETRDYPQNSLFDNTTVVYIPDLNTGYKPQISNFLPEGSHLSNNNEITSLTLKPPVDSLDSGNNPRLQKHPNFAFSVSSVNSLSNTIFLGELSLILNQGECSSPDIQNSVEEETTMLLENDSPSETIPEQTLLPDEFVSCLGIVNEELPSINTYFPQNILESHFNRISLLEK
Excerpt: A standard curve was used to predict the expression level of NanoLuc labelled receptor in each experiment (Supplementary Fig. 1).
Fig. 2 Creation and characterisation of a fluorescent cyclic peptide probe for IL23R. […] Data are normally mean ± SEM from five independent experiments. Details on absolute number of data points included for each concentration are provided in the associated Source Data file. In each individual saturation experiment triplicate determinations were normally made for total binding and duplicate measurements were made for non-specific binding.
(§1) Media was removed from white 96-well microplates containing transfected cells and replaced with fluoroprobe in the presence or absence of antagonist in 50 μL Hanks Balanced Salt Solution (HBSS) with 1 mg/mL BSA (Merck). After a 1-hour incubation at 37 °C without CO2, 5 μL of HBSS containing 77 μM furimizine was added to each well (final concentration 7 μM), the plate incubated for 5-minutes and the BRET signal measured using a PheraStar FS plate reader (BMG Labtech; data acquisition software version 5.41; MARS analysis software version 3.32) with a 450 ± 30 nm and >550 nm long pass filters.
Ligand binding data were fitted with the equation:2 BRETratio=Bmax[A]/([A]+KD)+(BA+C). Where ‘Bmax’ is the maximum specific binding BRET signal, ‘[A]’ is fluorescent probe concentration, ‘B’ is the non-specific binding component’s slope and ‘C’ is the Y intercept.
Specific binding data was generated by subtracting the BRET values gained in the presence of an excess of unlabelled probe from the BRET ratios gained in the absence of unlabelled probe. Specific binding data were fit using the equation:3 Y=Bmax[B]/(B+KD) where ‘Bmax’ is the maximum specific binding signal of the curve and ‘[B]’ is the concentration of fluorescent probe.

[2] = target: T2, C115Y mutated IL23R (Homo sapiens, UniProt P42701+Q5VWK5, C115Y); experiment: P630-TMR NanoBRET binding assay, C115Y mutant; settings: for Mean NanoBRET binding signal (Figure 7 panel b): NL-IL23R (C115Y) + IL12Rβ1
T2 construct: expressed in transfected cells; host or cells: HEK293T, transient transfection
Experimental: Data are mean ± SEM from five (C115Y) or four (wildtype) independent experiments conducted in duplicate or triplicate. Details on absolute number of data points included for each concentration are provided in the associated Source Data file.
as §1, with “filters. P630-TMR binding assays were normalised to a final DMSO concentration of 0.1%.” for “filters.”

[3] = NL-IL23R alone, P630-TMR 0.457247 nM
[4] = NL-IL23R alone, P630-TMR 1.37174 nM
[5] = NL-IL23R alone, P630-TMR 4.11523 nM
[6] = NL-IL23R alone, P630-TMR 12.3457 nM
[7] = NL-IL23R alone, P630-TMR 37.037 nM
[8] = NL-IL23R alone, P630-TMR 111.111 nM
[9] = NL-IL23R alone, P630-TMR 1000 nM
[10] = NL-IL23R alone, P630-TMR 3000 nM

T2 sequence (Q5VWK5 24-629 C115Y, other chains not shown): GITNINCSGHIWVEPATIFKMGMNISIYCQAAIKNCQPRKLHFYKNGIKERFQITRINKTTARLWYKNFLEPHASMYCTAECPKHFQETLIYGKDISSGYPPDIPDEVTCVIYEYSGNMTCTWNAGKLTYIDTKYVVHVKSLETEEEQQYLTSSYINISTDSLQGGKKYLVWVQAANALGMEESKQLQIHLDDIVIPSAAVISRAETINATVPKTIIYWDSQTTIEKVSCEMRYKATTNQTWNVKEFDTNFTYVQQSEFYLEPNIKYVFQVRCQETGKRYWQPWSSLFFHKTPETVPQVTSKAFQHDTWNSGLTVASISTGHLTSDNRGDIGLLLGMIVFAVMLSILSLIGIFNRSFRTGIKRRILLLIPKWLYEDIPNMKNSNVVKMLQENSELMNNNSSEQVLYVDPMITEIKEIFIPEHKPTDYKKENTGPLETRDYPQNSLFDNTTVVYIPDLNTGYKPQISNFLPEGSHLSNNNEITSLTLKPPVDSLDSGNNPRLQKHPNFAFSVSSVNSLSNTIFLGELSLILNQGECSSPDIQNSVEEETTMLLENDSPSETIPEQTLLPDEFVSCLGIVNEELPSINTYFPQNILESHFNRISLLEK

BRET ratio, Specific (Mean) [1, 3]: 0.2582
BRET ratio, Specific (Mean) [1, 4]: 0.3055
BRET ratio, Specific (Mean) [1, 5]: 0.425
BRET ratio, Specific (Mean) [1, 6]: 0.7682
BRET ratio, Specific (Mean) [1, 7]: 1.473
BRET ratio, Specific (Mean) [1, 8]: 2.644
BRET ratio, Specific (Mean) [1, 9]: 4.095
BRET ratio, Specific (Mean) [1, 10]: 5.137
BRET ratio, Non-specific (Mean) [1, 3]: 0.2458
BRET ratio, Non-specific (Mean) [1, 4]: 0.2417
BRET ratio, Non-specific (Mean) [1, 5]: 0.2509
BRET ratio, Non-specific (Mean) [1, 6]: 0.245
BRET ratio, Non-specific (Mean) [1, 7]: 0.2505
BRET ratio, Non-specific (Mean) [1, 8]: 0.2646
BRET ratio, Non-specific (Mean) [1, 9]: 0.4272
BRET ratio, Non-specific (Mean) [1, 10]: 0.8664
BRET ratio, Non-specific (Mean) ([1]; NL-IL23R alone, P630-TMR […]): 0.2988
BRET ratio with non-specific binding subtracted (Mean) ([1]; P630-TMR 0.457247 nM): 0.01938
BRET ratio with non-specific binding subtracted (Mean) ([1]; P630-TMR 1.37174 nM): 0.8164
BRET ratio with non-specific binding subtracted (Mean) ([1]; P630-TMR 4.11523 nM): 2.963
BRET ratio with non-specific binding subtracted (Mean) ([1]; P630-TMR 12.3457 nM): 2.778
BRET ratio with non-specific binding subtracted (Mean) ([1]; P630-TMR 37.037 nM): 2.936
BRET ratio with non-specific binding subtracted (Mean) ([1]; P630-TMR 111.111 nM): 9.572
BRET ratio with non-specific binding subtracted (Mean) ([1]; P630-TMR 1000 nM): 15.1461
BRET ratio with non-specific binding subtracted (Mean) ([1]; P630-TMR 3000 nM): 19.8619
% maximum BRET ratio / % of P630-TMR specific Bmax (Mean) ([1]; P630-TMR 0.457247 nM): 0.5534%
% maximum BRET ratio / % of P630-TMR specific Bmax (Mean) ([1]; P630-TMR 1.37174 nM): 1.759%
% maximum BRET ratio / % of P630-TMR specific Bmax (Mean) ([1]; P630-TMR 4.11523 nM): 4.853%
% maximum BRET ratio / % of P630-TMR specific Bmax (Mean) ([1]; P630-TMR 12.3457 nM): 14.5245%
% maximum BRET ratio / % of P630-TMR specific Bmax (Mean) ([1]; P630-TMR 37.037 nM): 33.5672%
% maximum BRET ratio / % of P630-TMR specific Bmax (Mean) ([1]; P630-TMR 111.111 nM): 64.3078%
% maximum BRET ratio / % of P630-TMR specific Bmax (Mean) ([1]; P630-TMR 1000 nM): 100.336%
% maximum BRET ratio / % of P630-TMR specific Bmax (Mean) ([1]; P630-TMR 3000 nM): 99.0015%
Kd ([1]; NL-IL23R alone, mean ± SEM): 101 ± 4 nM
Bmax, fold higher than NL-IL23R with IL12Rβ1 ([1]; NL-IL23R in isolation): 4.04 fold
Binding to C115Y mutant receptor [2]: blocked specific binding
Mean NanoBRET binding signal (Figure 7 panel b) ([2]; [P630-TMR] 0.8 nM): -0.003437
Mean NanoBRET binding signal (Figure 7 panel b) ([2]; [P630-TMR] 4 nM): -0.009288
Mean NanoBRET binding signal (Figure 7 panel b) ([2]; [P630-TMR] 20 nM): -0.006407
Mean NanoBRET binding signal (Figure 7 panel b) ([2]; [P630-TMR] 100 nM): -0.004647
Mean NanoBRET binding signal (Figure 7 panel b) ([2]; [P630-TMR] 500 nM): -0.001312
Mean NanoBRET binding signal (Figure 7 panel b) ([2]; [P630-TMR] 2000 nM): 0.003535
Structure (SMILES): COc1ccc(C[C@H](NC(=O)[C@H]2NC(=O)[C@H](CCC(N)=O)NC(=O)[C@H](Cc3c[nH]c4ccccc34)NC(=O)[C@H]([C@@H](C)O)NC(=O)[C@H](CC(N)=O)NC(=O)[C@@H](NC(C)=O)C(C)(C)SSC2(C)C)C(=O)N[C@@H](Cc2ccc3ccccc3c2)C(=O)NC(C)(C)C(=O)N[C@@H](CCC(=O)O)C(=O)N[C@@H](CC(N)=O)C(=O)N[C@@H](CC(N)=O)C(=O)N[C@@H](CCCCNC(=O)c2ccc3c(c2)C(=O)OC32c3ccc(N(C)C)cc3Oc3cc(N(C)C)ccc32)C(N)=O)cc1 [P630-TMR] (Ac-[Pen]NTWQ[Pen]Y(Me)[2Nal][Aib]ENNK(5TAMRA)-NH2; disulfide 1-6)
